The text below walks through data of patent US20210163489A1, “PYRAZOLOPYRIMIDINE DERIVATIVES AND THE COMPOSITIONS AND METHODS OF TREATMENT REGARDING THE SAME” (NysnoBio Ireland DAC, priority 2016, published 2021).

Series [1] in a line: Metabolic stability in human liver microsomes (HLM). Type of series: in vitro ADME. The conditions noted are these: pH 7.4, 1 μM compound, 1.0 mg/mL microsome, NADPH, read-out: HLM t1/2. How it is done: Compounds were also tested for metabolic stability in both rat liver microsomes (RLM) and human liver microsomes (HLM) and their half-life calculated (See Table 6). The assay was performed as follows. The total volume for each incubation was 250 μL. A 100 μM DMSO solution of compound (diluted from 10 mM stock solution) was spiked into 50 mM KH2PO4 (pH 7.4) buffer containing liver microsome at a concentration of 1.0 mg/mL. The reaction was initiated by the addition of 50 μL of 1 mM NADPH. The final concentration of each compound was 1 μM (1% DMSO). The positive controls, phenacetin for CYP1A2, diclofenac for CYP2C9, omeprazole for CYP2C19, dextromethorphan for CYP2D6 and midazolam for CYP3A4 were added to a separate tube with the final substrate concentrations of 1 μM (1% DMSO) for evaluating the enzyme activities in the liver microsomes. At 0, 15, 30 and 60 min, an aliquot of 15 μL reaction mixtures were removed and 200 μL of methanol (with internal standard of 25 ng/mL propranolol) was added to quench the reaction. The resulting mixture was centrifuged and supernatant was used for LC-MS/MS analysis.
The signals for each compound, or the metabolites for the probe substrates and the internal standard were integrated and the peak area ratios to internal standard were generated. Percent parent remaining at a specified timepoint was calculated based on the peak area ratios at time 0 (as 100%) for in vitro metabolic stability studies in liver microsome and hepatocyte. The observed rate constant (kobs) for the metabolism of substrates was calculated by plotting the natural log of percentage substrate remaining versus time of incubation with the slope being kobs. The half-life (T1/2) was calculated according to the following equation: […]

In series [2] the test system is S-HeLa stably expressing a YFP-Parkin fusion protein. The series can be described thus: Cell rating experiments: Parkin-dependent induction of mitophagy (Tomm20 immunofluorescence). Also on record: key to Cell Ratings [Example 4] (cell activity): +++: >70% effect at 10 μM; ++: 69%-31% effect at 10 μM; +: <30% effect at 10 μM; −: negative at 10 μM. Conditions: Tomm20 negative cells, 6 μM CCCP, compound at 10 μM; for activation at 10 µM: 20 h, read-out: Cell Ratings [Example 4] (cell activity); for Cell Ratings [Example 4] (cell activity): 20 hours. Type of series: cell-based. As for the experimental part:
Compounds: All compounds were dissolved in DMSO to a concentration of 25 mM and stored at −20° C. Compound 1 is N,N′-(1-phenyl-1H-1,2,4-triazole-3,5-diyl)dibenzamide.
Cell Culture: S-HeLa stably expressing a YFP-Parkin fusion protein (kindly donated by Prof. Richard J. Youle, Porter Neuroscience Research Center, Bethesda, Md., USA) were utilised to assess Parkin-dependent induction of mitophagy. 4000 cells were seeded in each well of a 96 well plate (Parkin Elmer ViewPlate-96 F TC, cat. N. 6005182) and left to grow for 24 hours.
Subsequently cells were incubated with vehicle (DMSO) or 6 μM CCCP for 1 hour prior to adding increasing concentrations of compound (1, 2.5, 5, 10 μM), each condition run in replicate of five. After 20 hours cells were processed for immunofluorescence.
Immunofluorescence: Samples were fixed in 4% PFA for 25 minutes RT and permeabilized with PBS 0.1% Triton-X100 for 3 minutes on ice, blocked with PBS 3% BSA, 0.3% Triton-X100 for 2 hours RT, followed by overnight incubation with primary antibody at 4° C. ([…] rabbit Tomm20 antibody FL-145; Santa Cruz Biotechnology) diluted in PBS 0.1% BSA, 0.3% Triton-X100. The secondary goat anti-rabbit antibody conjugated with DyLight 649 (Jackson ImmunoResearch) was applied for 1 hour at room temperature at a concentration of […] in conjunction with […] Hoechst33342.
Cells were imaged using an Olympus ScanR automated microscope equipped with motorised stage and 20x APO planar objective. 18 images were acquired for each well using the following combination of excitation/emission filters: Hoechst33342 was excited through a 350/50 nm band pass filter and fluorescence intensity was collected through a 460/30 band pass filter. YFP was excited through a 500/20 nm band pass filter and fluorescence intensity was collected through a 540/35 band pass filter. DyLight 649 was excited through a 640/30 nm band pass filter and fluorescence intensity was collected through 700/75 band pass filter. Images were processed and analysed as described in the Image Analysis section.
Image analysis: Images were processed and analysed using Columbus HCS Analysis software (Version 2.5.0., PerkinElmer) as follows:
Tomm20 fluorescence intensity was corrected using the parabola algorithm. Hoechst 33342 fluorescence was used to identify and count cells. Cells were segmented according to Tomm20 fluorescence intensity. Spot detection was optimized to recognize number and total cellular area of Tomm20 stained clusters (mitochondria).
Tomm20 staining intensity, spot numbers and spot area were used to train a linear classifier algorithm that discriminated between Tomm20 positive (high intensity, spot numbers and spot area) and Tomm20 negative cells (low intensity, spot numbers and spot area).
Bar graphs were generated reporting the number of Tomm20 negative cells expressed as percentage of total cells imaged for each well (FIGS. 3 and 6). Results were shown as mean ±SD of a representative experiment performed in triplicate. +++ indicates >70% effect at 10 μM; ++ indicates 69%-31% effect at 10 μM; + indicates <30% effect at 10 μM; − indicates negative at 10 μM; NA=not available.

Where only a bound is given, the exact number is not on record here.

Consider `Cc1cc(S)n2ncc(-c3cccc(N(C)C)c3)c2n1` [UU], for which, in series [1], the half-life at 1 μM was found to be 0.55 h.

On to `Cc1nc2c(-c3ccccc3)c(C)nn2c(S)c1Cc1ccncc1` [Compound AA, 2,5-dimethyl-3-phenyl-6-(4-pyridylmethyl)pyrazolo[1,5-a]pyrimidine-7-thiol], for which the activation at 10 µM in series [2] is above 70%. The half-life at 1 μM in series [1] came out at 1.09 h.

As to `Cc1nn2c(O)cc(C(C)(C)C)nc2c1-c1ccc(Cl)cc1` [F], the activation at 10 µM in series [2] fell in the range of 31 to 69%. As to `Cc1nc2c(-c3ccccc3)cnn2c(S)c1Cc1ccccc1` [Compound CC, 6-benzyl-5-methyl-3-phenyl-pyrazolo[1,5-a]pyrimidin-7-thiol], the activation at 10 µM in series [2] was above 70%. In addition, the half-life at 1 μM in series [1] is 0.382 h. Consider `Sc1c(Cc2ccccc2)cnc2c(-c3ccccc3)cnn12` [Compound Z, 6-benzyl-3-phenyl-pyrazolo[1,5-a]pyrimidin-7-thiol], for which the activation at 10 µM in series [2] was in the range of 31 to 69%. As to `Cc1cc2nc(C)c(Cc3ccc(Cl)cc3)c(S)n2n1` [Compound R, 6-[(4-chlorophenyl)methyl]-2,5-dimethyl-pyrazolo[1,5-a]pyrimidine-7-thiol], in series [2], the activation at 10 µM was below 30%.

Take `Cc1nc2c(C(F)(F)F)c(C)nn2c(S)c1Cc1ccccc1` [LL]: the activation at 10 µM in series [2] was in the range of 31 to 69%.

Turning to `CCc1nn2c(S)cc(C)nc2c1-c1ccc(F)cc1` [Compound I], the activation at 10 µM in series [2] was 31 to 69%. In the case of `Cc1ccc(-c2cnn3c(S)cc(C)nc23)cc1` [TT], the half-life at 1 μM in series [1] worked out at 0.197 h. Turning to `Cc1nn2c(S)c3c(nc2c1-c1ccccc1)CN(C)CC3` [Compound C3], the half-life at 1 μM in series [1] amounted to 2.57 h. As for `COc1ccccc1-c1c(C)nn2c(S)cc(C)nc12` [Compound D], the activation at 10 µM in series [2] is below 30%.

As to `CC(C)(C)c1cc(O)n2ncc(-c3ccccc3)c2n1` [J], in series [2], the activation at 10 µM lay in the range of 31 to 69%. Turning to `Cc1nc2c(-c3ccncc3)c(C)nn2c(S)c1Cc1ccccc1` [MM], in series [2], the “Cell Ratings [Example 4] (cell activity)” value is on record as “−”. Take `Cc1nn2c(S)c3c(nc2c1-c1ccccc1)CCCC3` [Compound K]: the activation at 10 µM in series [2] lay within 31 to 69%.

As to `Cc1nn2c(S)c(Cc3ccccc3)cnc2c1-c1ccccc1` [Compound DD, 6-benzyl-2-methyl-3-phenyl-pyrazolo[1,5-a]pyrimidin-7-thiol], the activation at 10 µM in series [2] was 31 to 69%. On to `Cc1nc2c(-c3ccccc3)c(C)nn2c(S)c1Cc1ccccc1` [Compound A, 6-benzyl-2,5-dimethyl-3-phenylpyrazolo[1,5-a]pyrimidine-7-thiol], for which the half-life at 1 μM in series [1] stood at 1.05 h. As for `Cc1nc2c(-c3ccccc3)c(C)nn2c(S)c1Cc1ccccn1` [Compound BB, 2,5-dimethyl-3-phenyl-6-(2-pyridylmethyl)pyrazolo[1,5-a]pyrimidine-7-thiol], the “Cell Ratings [Example 4] (cell activity)” value in series [2] is reported as “−”.

Take `Cc1cc2nc(C)c(Cc3ccccc3)c(S)n2n1` [S]: in series [2], the activation at 10 µM is below 30%. `Cc1nc2c(-c3ccccc3)cnn2c(O)c1Cc1ccccc1` [Compound U, 6-benzyl-5-methyl-3-phenyl-pyrazolo[1,5-a]pyrimidin-7-ol]: the activation at 10 µM in series [2] fell in the range of 31 to 69%. Take `Cc1cc2nc(C)c(Cc3ccc(Cl)cc3)c(O)n2n1` [Compound P, 6-[(4-chlorophenyl)methyl]-2,5-dimethyl-pyrazolo[1,5-a]pyrimidin-7-ol]: the activation at 10 µM in series [2] was below 30%.

On to `Cc1nc2c(-c3ccccc3)c(C)nn2c(O)c1Cc1ccccc1` [T], for which, in series [2], the activation at 10 µM is below 30%.

Take `Cc1cc(C)c2c(n1)nn1c(S)cc(C)nc21` [Compound E]: the activation at 10 µM in series [2] was above 70%. For the same molecule, in series [1], the half-life at 1 μM was found to be 2.88 h.

Consider `Cc1cc(S)n2ncc(-c3ccc(F)cc3)c2n1` [Compound L, 3-(4-fluorophenyl)-5-methylpyrazolo[1,5-a]pyrimidine-7-thiol], for which the activation at 10 µM in series [2] is above 70%. In addition, the half-life at 1 μM in series [1] came out at 2.68 h. With `Cc1nc2c(-c3ccccn3)c(C)nn2c(O)c1Cc1ccccc1` [FF], the activation at 10 µM in series [2] was below 30%. The same measure, in the same setting: as for `Cc1cc(S)n2ncc(-c3ccccc3)c2n1` [Compound C], the figure is 31 to 69%. In the case of `COc1ccc(-c2cnn3c(S)cc(C)nc23)cc1` [SS], the half-life at 1 μM in series [1] came to 0.74 h.
